We go through one compound from paper PMC4570970 (ACS chemical biology, 2015).

A word on the Ki: it is a measure of affinity in units of concentration, obtained from inhibition or displacement. Low readings indicate tighter binding, high ones weaker binding.

The target of the experiment is T1, 5-epi-aristolochene synthase (TEAS) (Nicotiana tabacum, UniProt Q40577).
T1 sequence (Q40577 1-548): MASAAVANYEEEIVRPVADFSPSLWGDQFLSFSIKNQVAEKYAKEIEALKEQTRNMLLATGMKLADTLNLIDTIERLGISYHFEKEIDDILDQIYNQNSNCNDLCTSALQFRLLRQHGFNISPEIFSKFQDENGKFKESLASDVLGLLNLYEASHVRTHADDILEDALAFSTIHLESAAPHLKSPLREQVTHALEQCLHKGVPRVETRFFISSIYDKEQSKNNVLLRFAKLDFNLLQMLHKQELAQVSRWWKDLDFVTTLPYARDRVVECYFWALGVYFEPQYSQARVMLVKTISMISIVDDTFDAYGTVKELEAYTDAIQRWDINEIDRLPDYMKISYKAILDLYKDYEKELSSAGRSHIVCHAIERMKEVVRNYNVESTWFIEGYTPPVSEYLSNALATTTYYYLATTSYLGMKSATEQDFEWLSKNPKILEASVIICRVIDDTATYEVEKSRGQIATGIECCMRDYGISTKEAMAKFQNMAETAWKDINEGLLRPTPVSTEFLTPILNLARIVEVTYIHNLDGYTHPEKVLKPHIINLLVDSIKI
Nature of the experiment: crystal structure. It is filed as biochemical.

Compound `C/C(=C\COP(=O)(O)OP(=O)(O)O)CC/C=C(\C)CNc1ccccc1` [compound 4, AGPP] came in with a Ki of 0.38 µM.
